Assay results: US9718760B2, “Plasminogen activator inhibitor-1 inhibitors and methods of use thereof” (THE REGENTS OF THE UNIVERSITY OF MICHIGAN, priority 2012, dated 2017)

Legend:
Type in all cases: biochemical
Settings in all cases: physiologic buffer
[1] = biological target: T1, recombinant active human PAI-1 (Homo sapiens (Human), UniProt P05121); test: Fluorometric PAI-1/uPA IC50 plate assay at pH 7.8
Experimental: To determine the efficacy of various synthesized compounds as PAI-1 inhibitors at pH 7.8, additional fluorometric plate assays were carried out to measure the half maximal inhibitory concentration (IC50) of these compounds on recombinant active human PAI-1 in vitro.
PAI-1 inhibitor compounds were dissolved in DMSO to a final concentration of (10-50 mM), depending upon solubility. […] Fluorescence, as a measure of the rate of AMC release by uPA, was read at the following wavelengths; excitation 370 nm, emission 440 nm. Controls included PAI-1 and uPA in the absence of compound and uPA alone. Percent PAI-1 inhibition was calculated using the following formula: [(uPA alone-uPA/PAI-1+ compound)/(uPA alone-PAI-1/uPA)]*100%. The IC50 was calculated using Graphit (IC50 0-100%).

[2] = biological target: T1, recombinant active human PAI-1; test: Fluorometric PAI-1/tPA IC50 plate assay at pH 7.8
Experimental: (§1) Additional fluorometric plate assays were carried out, as set out below, to determine the IC50 of various synthesized compounds as PAI-1 inhibitors.
PAI-1 inhibitor compounds were dissolved in DMSO to a final concentration of (10-50 mM), depending upon solubility. […] Tissue type PA activity in each reaction mixture was determined by adding Phe-Gly-Arg-AMC fluorogenic substrate (100 μL of 100 μM) (Centerchem). The rate of AMC release by tPA was measured at an excitation wavelength of 370 nm and an emission wavelength of 440 nm. Controls included PAI-1 and tPA in the absence of compound and tPA alone. Percent PAI-1 inhibition was calculated using the following formula: [(tPA alone-tPA/PAI-1+ compound)/(tPA alone-PAI-1/tPA)]*100%. The IC50 is calculated using Graphit (IC50 0-100%).

[3] = biological target: anti-thrombin III (ATIII) (Homo sapiens (Human), UniProt P01008); test: Fluorometric ATIII/αIIa IC50 plate assay at pH 7.8 (specificity control)
Experimental: as §1
Alpha-thrombin is an active enzyme, related to uPA or tPA. Alpha-thrombin is inhibited by the serpin ATIII, which is closely related to PAI-1. This assay was used therefore as a control in testing for specificity of the PAI-1 inhibitor compounds. Thus, any compound that is specific for inhibiting PAI-1 should not inhibit ATIII.
PAI-1 inhibitor compounds were dissolved in DMSO to a final concentration of (10-50 mM), depending upon solubility. […] 100 μL of 100 μM fluorogenic, tripeptide aminomethylcoumarin benzoyl Phe-Val-Arg-AMC substrate was then added and residual αIIa activity was determined based upon cleavage of this substrate. The rate of AMC release by αIIa was measured at an excitation wavelength of 370 nm and an emission wavelength of 440 nm. Controls included PAI-1 and αIIa in the absence of compound and αIIa alone. Percent PAI-1 inhibition is calculated using the following formula: [(αIIa alone-αIIa/PAI-1+ compound)/(αIIa alone-PAI-1/αIIa)]*100%. The IC50 is calculated using Graphit (IC50 0-100%).

Chain of anti-thrombin III (ATIII) (P01008 33-464 limits assumed, species assumed): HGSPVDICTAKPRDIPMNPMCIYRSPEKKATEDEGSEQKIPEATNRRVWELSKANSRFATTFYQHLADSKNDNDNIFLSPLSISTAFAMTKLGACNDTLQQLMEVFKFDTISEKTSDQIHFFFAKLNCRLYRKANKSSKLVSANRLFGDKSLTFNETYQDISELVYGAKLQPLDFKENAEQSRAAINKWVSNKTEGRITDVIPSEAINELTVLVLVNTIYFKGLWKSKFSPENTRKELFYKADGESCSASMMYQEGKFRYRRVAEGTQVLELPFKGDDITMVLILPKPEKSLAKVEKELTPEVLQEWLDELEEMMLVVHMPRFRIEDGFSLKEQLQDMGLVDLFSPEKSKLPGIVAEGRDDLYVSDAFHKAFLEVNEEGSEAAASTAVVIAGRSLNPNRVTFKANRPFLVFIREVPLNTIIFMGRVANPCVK
T1 sequence (P05121 24-402): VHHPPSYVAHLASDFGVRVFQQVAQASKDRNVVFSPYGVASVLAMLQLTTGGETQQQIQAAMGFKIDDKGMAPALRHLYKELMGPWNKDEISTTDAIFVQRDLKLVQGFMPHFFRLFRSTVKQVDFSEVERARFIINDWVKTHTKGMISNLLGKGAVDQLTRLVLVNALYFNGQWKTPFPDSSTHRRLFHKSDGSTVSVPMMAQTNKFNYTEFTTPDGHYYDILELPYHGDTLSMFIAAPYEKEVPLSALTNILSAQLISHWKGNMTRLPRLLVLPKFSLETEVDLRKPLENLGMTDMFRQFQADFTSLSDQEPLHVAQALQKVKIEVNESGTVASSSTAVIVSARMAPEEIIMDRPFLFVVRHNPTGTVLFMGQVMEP

Row | SMILES | IC50 [1] | IC50 [2] | IC50 [3]
1 | O=S(=O)(NCc1ccccc1)c1ccc(O)c(O)c1 [C160] | 39000 nM | 58200 nM | 2.33 mM
2 | CCCCCCCCN(S(=O)(=O)c1cc(F)c(O)c(F)c1)S(=O)(=O)c1cc(F)c(O)c(F)c1 [C155] | 30400 nM | 34800 nM | 2.33 mM
3 | CCCCCCCCNC(=O)c1cc(O)c(O)c(O)c1 [C161] | 3700 nM | 2210 nM | 1.67 mM
4 | CC(C)(C)OC(=O)NCCCOC(=O)c1cc(O)c(O)c(O)c1 [C156] | 189000 nM | 581000 nM | 
5 | CCCCCCCCN(S(=O)(=O)c1ccc(O)c(O)c1)S(=O)(=O)c1cc(F)c(O)c(F)c1 [C152] | 1570 nM | 1710 nM | 0.087 mM
6 | CCCCCCCCCCCCN(S(=O)(=O)c1ccc(O)c(O)c1)S(=O)(=O)c1ccc(O)c(O)c1 [C158] | 2600 nM | 1440 nM | 0.547 mM
7 | O=S(=O)(c1ccc(O)c(O)c1)N(CCc1ccccn1)S(=O)(=O)c1ccc(O)c(O)c1 [C162] | 3900 nM | 7590 nM | 

The next compounds have a lower IC50 [1] than those just listed; values first:

Row | IC50 [1] | IC50 [2] | IC50 [3] | SMILES
8 | 350 nM | 510 nM |  | O=S(=O)(c1ccc(O)c(O)c1)N(c1ccc(-c2ccccc2)cc1)S(=O)(=O)c1ccc(O)c(O)c1 [C165]
9 | 700 nM | 1020 nM |  | O=S(=O)(c1ccc(O)c(O)c1)N(c1ccccc1)S(=O)(=O)c1ccc(O)c(O)c1 [C153]
10 | 288 nM | 611 nM |  | O=S(=O)(c1ccc(O)c(O)c1)N(c1cccc(C(F)(F)F)c1)S(=O)(=O)c1ccc(O)c(O)c1 [C163]
11 | 250 nM | 980 nM | 0.0444 mM | CCCCCCCCCCN(S(=O)(=O)c1ccc(O)c(O)c1)S(=O)(=O)c1ccc(O)c(O)c1 [C157]
